From the NIST ThermoML archive (doi:10.1016/j.jct.2009.09.013)
Numbers after ± are expanded uncertainties.

Assay: xn = mol fraction of the nth substance listed
Settings: 101 kPa, Liquid; for speed of sound: Sing-around technique in a fixed-path interferometer; for kinematic viscosity: Vibrating wire viscometry; for mass density: Vibrating tube method

CCCCO [butan-1-ol] + OCCCCO
x2 = 0
Settings	kinematic viscosity [m2/s]	mass density [kg/m3]	speed of sound [m/s]
293.03 K	–	–	1257 ± 2.1
298.02 K	3.24e-06 ± 6.7e-08	–	–
298.07 K	–	–	1239.7 ± 2.1
298.15 K	–	805.77 ± 0.16	–
302.47 K	2.9e-06 ± 6e-08	–	–
303.15 K	–	801.928 ± 0.16	–
303.35 K	–	–	1221.6 ± 2.1
308 K	2.53e-06 ± 5.3e-08	–	–
308.15 K	–	798.054 ± 0.16	–
308.34 K	–	–	1204.8 ± 2.1
312.96 K	2.25e-06 ± 4.7e-08	–	–
313.15 K	–	794.146 ± 0.17	–
313.37 K	–	–	1188 ± 2.1
318.15 K	–	790.196 ± 0.17	–
318.37 K	–	–	1171.4 ± 2.1
318.61 K	1.99e-06 ± 4.2e-08	–	–

OCCCCO [1,4-butanediol] + CCCCO
Settings	kinematic viscosity [m2/s]	mass density [kg/m3]	speed of sound [m/s]
293.02 K, x1 = 1	–	–	1614.9 ± 2.4
293.03 K, x1 = 0.7946	–	–	1537.8 ± 2.3
293.05 K, x1 = 0.6478	–	–	1482.1 ± 2.3
293.05 K, x1 = 0.9234	–	–	1586.4 ± 2.4
293.06 K, x1 = 0.3571	–	–	1375.1 ± 2.2
293.06 K, x1 = 0.4979	–	–	1426 ± 2.3
293.07 K, x1 = 0.2	–	–	1321 ± 2.2
293.08 K, x1 = 0.051	–	–	1272.7 ± 2.2
298.01 K, x1 = 1	6.99e-05 ± 1.5e-06	–	–
298.06 K, x1 = 0.4592	1.56e-05 ± 3.3e-07	–	–
298.06 K, x1 = 1	–	–	1602.6 ± 2.4
298.07 K, x1 = 0.1507	5.44e-06 ± 1.2e-07	–	–
298.07 K, x1 = 0.9374	6e-05 ± 1.3e-06	–	–
298.08 K, x1 = 0.2	–	–	1304.8 ± 2.2
298.08 K, x1 = 0.5676	2.18e-05 ± 4.6e-07	–	–
298.08 K, x1 = 0.6478	–	–	1468.3 ± 2.3
298.08 K, x1 = 0.7946	–	–	1524.7 ± 2.3
298.09 K, x1 = 0.3571	–	–	1359.7 ± 2.2
298.09 K, x1 = 0.7435	3.62e-05 ± 7.7e-07	–	–
298.1 K, x1 = 0.051	–	–	1255.7 ± 2.2
298.1 K, x1 = 0.4979	–	–	1411.3 ± 2.3
298.1 K, x1 = 0.6576	2.84e-05 ± 6.1e-07	–	–
298.1 K, x1 = 0.8108	4.34e-05 ± 9.3e-07	–	–
298.1 K, x1 = 0.9234	–	–	1573.9 ± 2.4
298.14 K, x1 = 0.2986	9.22e-06 ± 2e-07	–	–
298.15 K, x1 = 0.1507	–	837.834 ± 0.27	–
298.15 K, x1 = 0.2986	–	869.164 ± 0.27	–
298.15 K, x1 = 0.4592	–	902.986 ± 0.27	–
298.15 K, x1 = 0.5676	–	925.394 ± 0.27	–
298.15 K, x1 = 0.6576	–	943.952 ± 0.28	–
298.15 K, x1 = 0.7435	–	961.447 ± 0.28	–
298.15 K, x1 = 0.8108	–	974.991 ± 0.29	–
298.15 K, x1 = 0.9374	–	1000.24 ± 0.3	–
298.15 K, x1 = 1	–	1012.72 ± 0.24	–
302.51 K, x1 = 1	5.63e-05 ± 1.2e-06	–	–
302.99 K, x1 = 0.9374	4.76e-05 ± 1e-06	–	–
303 K, x1 = 0.6576	2.33e-05 ± 5e-07	–	–
303.01 K, x1 = 0.1507	4.68e-06 ± 1e-07	–	–
303.01 K, x1 = 0.5676	1.8e-05 ± 3.8e-07	–	–
303.01 K, x1 = 0.7435	2.93e-05 ± 6.3e-07	–	–
303.01 K, x1 = 0.8108	3.49e-05 ± 7.5e-07	–	–
303.04 K, x1 = 0.4592	1.3e-05 ± 2.8e-07	–	–
303.06 K, x1 = 0.2986	7.83e-06 ± 1.7e-07	–	–
303.15 K, x1 = 0.1507	–	834.13 ± 0.27	–
303.15 K, x1 = 0.2986	–	865.589 ± 0.27	–
303.15 K, x1 = 0.4592	–	899.553 ± 0.27	–
303.15 K, x1 = 0.5676	–	922.055 ± 0.28	–
303.15 K, x1 = 0.6576	–	940.685 ± 0.28	–
303.15 K, x1 = 0.7435	–	958.245 ± 0.28	–
303.15 K, x1 = 0.8108	–	971.848 ± 0.29	–
303.15 K, x1 = 0.9374	–	997.175 ± 0.3	–
303.15 K, x1 = 1	–	1009.69 ± 0.24	–
303.3 K, x1 = 1	–	–	1590.1 ± 2.3
303.36 K, x1 = 0.2	–	–	1287.8 ± 2.2
303.36 K, x1 = 0.4979	–	–	1396.1 ± 2.3
303.36 K, x1 = 0.7946	–	–	1511 ± 2.3
303.36 K, x1 = 0.9234	–	–	1561 ± 2.4
303.37 K, x1 = 0.051	–	–	1238 ± 2.2
303.37 K, x1 = 0.3571	–	–	1343.7 ± 2.2
303.39 K, x1 = 0.6478	–	–	1453.8 ± 2.3
308.06 K, x1 = 1	4.37e-05 ± 9.4e-07	–	–
308.15 K, x1 = 0.1507	–	830.397 ± 0.27	–
308.15 K, x1 = 0.2986	–	861.995 ± 0.27	–
308.15 K, x1 = 0.4592	–	896.107 ± 0.27	–
308.15 K, x1 = 0.5676	–	918.702 ± 0.28	–
308.15 K, x1 = 0.6576	–	937.408 ± 0.28	–
308.15 K, x1 = 0.7435	–	955.036 ± 0.28	–
308.15 K, x1 = 0.8108	–	968.692 ± 0.29	–
308.15 K, x1 = 0.9374	–	994.107 ± 0.3	–
308.15 K, x1 = 1	–	1006.66 ± 0.24	–
308.16 K, x1 = 0.9374	3.79e-05 ± 8.1e-07	–	–
308.17 K, x1 = 0.6576	1.9e-05 ± 4.1e-07	–	–
308.18 K, x1 = 0.4592	1.09e-05 ± 2.3e-07	–	–
308.19 K, x1 = 0.8108	2.8e-05 ± 6e-07	–	–
308.22 K, x1 = 0.1507	3.96e-06 ± 8.4e-08	–	–
308.22 K, x1 = 0.2986	6.63e-06 ± 1.4e-07	–	–
308.23 K, x1 = 0.5676	1.48e-05 ± 3.2e-07	–	–
308.24 K, x1 = 0.7435	2.37e-05 ± 5.1e-07	–	–
308.32 K, x1 = 0.7946	–	–	1498.4 ± 2.3
308.32 K, x1 = 1	–	–	1578.3 ± 2.3
308.33 K, x1 = 0.051	–	–	1221.5 ± 2.2
308.33 K, x1 = 0.9234	–	–	1548.9 ± 2.4
308.35 K, x1 = 0.3571	–	–	1328.7 ± 2.2
308.35 K, x1 = 0.4979	–	–	1381.9 ± 2.3
308.36 K, x1 = 0.2	–	–	1272 ± 2.2
308.38 K, x1 = 0.6478	–	–	1440.3 ± 2.3
313.12 K, x1 = 1	3.51e-05 ± 7.5e-07	–	–
313.15 K, x1 = 0.1507	–	826.639 ± 0.27	–
313.15 K, x1 = 0.2986	–	858.379 ± 0.27	–
313.15 K, x1 = 0.4592	–	892.64 ± 0.28	–
313.15 K, x1 = 0.5676	–	915.331 ± 0.28	–
313.15 K, x1 = 0.6576	–	934.116 ± 0.28	–
313.15 K, x1 = 0.7435	–	951.814 ± 0.28	–
313.15 K, x1 = 0.8108	–	965.521 ± 0.29	–
313.15 K, x1 = 0.9374	–	991.027 ± 0.3	–
313.15 K, x1 = 1	–	1003.63 ± 0.23	–
313.19 K, x1 = 0.9374	3.06e-05 ± 6.6e-07	–	–
313.2 K, x1 = 0.6757	1.57e-05 ± 3.3e-07	–	–
313.21 K, x1 = 0.5676	1.24e-05 ± 2.6e-07	–	–
313.23 K, x1 = 0.4592	9.16e-06 ± 1.9e-07	–	–
313.23 K, x1 = 0.7435	1.95e-05 ± 4.2e-07	–	–
313.23 K, x1 = 0.8108	2.29e-05 ± 4.9e-07	–	–
313.26 K, x1 = 0.1507	3.36e-06 ± 7.2e-08	–	–
313.29 K, x1 = 0.2986	5.65e-06 ± 1.2e-07	–	–
313.32 K, x1 = 0.051	–	–	1204.9 ± 2.2
313.33 K, x1 = 0.7946	–	–	1485.7 ± 2.3
313.35 K, x1 = 1	–	–	1566.5 ± 2.3
313.36 K, x1 = 0.3571	–	–	1313.8 ± 2.2
313.36 K, x1 = 0.9234	–	–	1536.8 ± 2.4
313.37 K, x1 = 0.2	–	–	1256.2 ± 2.2
313.37 K, x1 = 0.4979	–	–	1367.6 ± 2.3
313.39 K, x1 = 0.6478	–	–	1426.9 ± 2.3
318.15 K, x1 = 0.1507	–	822.854 ± 0.27	–
318.15 K, x1 = 0.2986	–	854.74 ± 0.27	–
318.15 K, x1 = 0.4592	–	889.157 ± 0.28	–
318.15 K, x1 = 0.5676	–	911.95 ± 0.28	–
318.15 K, x1 = 0.6576	–	930.812 ± 0.28	–
318.15 K, x1 = 0.7435	–	948.578 ± 0.28	–
318.15 K, x1 = 0.8108	–	962.345 ± 0.29	–
318.15 K, x1 = 0.9374	–	987.943 ± 0.3	–
318.15 K, x1 = 1	–	1000.58 ± 0.23	–
318.29 K, x1 = 0.051	–	–	1188.5 ± 2.2
318.3 K, x1 = 0.7946	–	–	1473.1 ± 2.3
318.35 K, x1 = 0.3571	–	–	1299.1 ± 2.2
318.35 K, x1 = 0.4979	–	–	1353.5 ± 2.3
318.35 K, x1 = 1	–	–	1554.8 ± 2.3
318.36 K, x1 = 0.9234	–	–	1525 ± 2.4
318.38 K, x1 = 0.2	–	–	1240.6 ± 2.2
318.38 K, x1 = 0.6478	–	–	1413.6 ± 2.3
318.56 K, x1 = 0.8108	1.87e-05 ± 4e-07	–	–
318.72 K, x1 = 1	2.79e-05 ± 6e-07	–	–
318.73 K, x1 = 0.9374	2.45e-05 ± 5.3e-07	–	–
318.74 K, x1 = 0.6575	1.29e-05 ± 2.7e-07	–	–
318.75 K, x1 = 0.5676	1.03e-05 ± 2.2e-07	–	–
318.75 K, x1 = 0.7435	1.59e-05 ± 3.4e-07	–	–
318.76 K, x1 = 0.4592	7.65e-06 ± 1.6e-07	–	–
318.8 K, x1 = 0.1507	2.79e-06 ± 5.9e-08	–	–
318.81 K, x1 = 0.2986	4.76e-06 ± 1e-07	–	–
